Article PMC10557102 (Pharmacology Research & Perspectives, 2023)
Like-named read-outs stand apart in the source and are kept apart here.

Columns and labels:
CYP2C19 = CYP2C19 (Homo sapiens, UniProt P33261)
CYP2C9 [1] = biological target: CYP2C9 (Homo sapiens, UniProt P11712); assay: Competitive; assay type: in vitro ADME
human OX1R = conditions: OX1R vs OX2R; cited from earlier work
[2] = Plasma pharmacokinetics of nivasorexant 100 mg b.i.d. in healthy subjects; conditions: for unbound peak concentration: corrected for molecular weight and f u,p 0.01
CYP2B6 [3] = biological target: T1, CYP2B6 (Homo sapiens, UniProt P20813); assay: Competitive; assay type: in vitro ADME
T1 sequence (P20813 1-491): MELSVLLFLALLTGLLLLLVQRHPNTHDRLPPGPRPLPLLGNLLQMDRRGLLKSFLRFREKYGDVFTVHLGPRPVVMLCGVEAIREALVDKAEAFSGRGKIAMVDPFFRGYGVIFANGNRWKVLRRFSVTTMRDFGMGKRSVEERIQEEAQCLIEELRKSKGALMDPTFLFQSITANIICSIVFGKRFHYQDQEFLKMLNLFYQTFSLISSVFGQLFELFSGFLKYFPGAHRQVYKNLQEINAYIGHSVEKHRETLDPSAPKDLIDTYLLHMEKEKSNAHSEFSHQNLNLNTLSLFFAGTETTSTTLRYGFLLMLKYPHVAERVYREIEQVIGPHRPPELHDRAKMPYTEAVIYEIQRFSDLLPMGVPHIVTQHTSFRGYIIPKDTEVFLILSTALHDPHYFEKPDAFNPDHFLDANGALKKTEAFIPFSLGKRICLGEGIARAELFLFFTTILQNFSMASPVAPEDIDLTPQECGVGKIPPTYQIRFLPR

CYP3A4 [4] = biological target: T2, CYP3A4 (Homo sapiens, UniProt P08684); assay: Time-dependent; assay type: in vitro ADME; conditions: for IC50 shift: 30 min pre‐incubation with/without NADPH
T2 sequence (P08684 whole entry): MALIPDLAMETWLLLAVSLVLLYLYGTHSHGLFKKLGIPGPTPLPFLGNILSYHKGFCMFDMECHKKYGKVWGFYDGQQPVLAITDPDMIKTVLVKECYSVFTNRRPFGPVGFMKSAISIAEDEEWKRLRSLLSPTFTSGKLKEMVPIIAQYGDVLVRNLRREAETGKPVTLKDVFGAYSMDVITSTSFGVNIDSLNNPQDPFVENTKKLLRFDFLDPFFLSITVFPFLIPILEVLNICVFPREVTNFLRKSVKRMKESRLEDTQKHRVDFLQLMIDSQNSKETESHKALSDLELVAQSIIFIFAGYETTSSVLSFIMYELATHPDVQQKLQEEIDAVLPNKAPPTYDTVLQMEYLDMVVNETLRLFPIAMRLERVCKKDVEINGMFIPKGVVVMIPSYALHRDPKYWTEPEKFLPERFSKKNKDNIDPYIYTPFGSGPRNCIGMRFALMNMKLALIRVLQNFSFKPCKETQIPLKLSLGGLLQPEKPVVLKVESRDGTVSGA

CYP3A4 [5] = biological target: T2, CYP3A4; assay: Competitive; assay type: in vitro ADME
CYP2C8 = biological target: T3, CYP2C8 (Homo sapiens, UniProt P10632); assay: Time-dependent; assay type: in vitro ADME; conditions: 30 min pre‐incubation with/without NADPH; paclitaxel 6α‐hydroxylation
T3 sequence (P10632 1-490): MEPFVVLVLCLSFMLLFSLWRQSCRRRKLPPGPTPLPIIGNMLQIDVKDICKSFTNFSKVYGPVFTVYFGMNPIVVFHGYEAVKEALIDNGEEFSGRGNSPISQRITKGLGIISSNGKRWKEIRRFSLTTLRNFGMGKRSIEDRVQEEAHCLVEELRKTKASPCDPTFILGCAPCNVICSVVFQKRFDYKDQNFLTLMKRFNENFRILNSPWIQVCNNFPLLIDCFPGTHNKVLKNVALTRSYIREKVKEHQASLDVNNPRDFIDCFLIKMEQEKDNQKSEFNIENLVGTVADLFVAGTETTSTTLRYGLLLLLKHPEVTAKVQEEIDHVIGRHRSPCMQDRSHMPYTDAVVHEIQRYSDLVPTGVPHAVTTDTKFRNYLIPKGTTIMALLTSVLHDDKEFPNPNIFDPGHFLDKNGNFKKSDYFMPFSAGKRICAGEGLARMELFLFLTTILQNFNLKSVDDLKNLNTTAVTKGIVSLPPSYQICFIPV

CYP2D6 [6] = biological target: T4, CYP2D6 (Homo sapiens, UniProt P10635); assay: Time-dependent; assay type: in vitro ADME; conditions: 30 min pre‐incubation with/without NADPH; dextromethorphan N‐demethylation
T4 sequence (P10635 whole entry): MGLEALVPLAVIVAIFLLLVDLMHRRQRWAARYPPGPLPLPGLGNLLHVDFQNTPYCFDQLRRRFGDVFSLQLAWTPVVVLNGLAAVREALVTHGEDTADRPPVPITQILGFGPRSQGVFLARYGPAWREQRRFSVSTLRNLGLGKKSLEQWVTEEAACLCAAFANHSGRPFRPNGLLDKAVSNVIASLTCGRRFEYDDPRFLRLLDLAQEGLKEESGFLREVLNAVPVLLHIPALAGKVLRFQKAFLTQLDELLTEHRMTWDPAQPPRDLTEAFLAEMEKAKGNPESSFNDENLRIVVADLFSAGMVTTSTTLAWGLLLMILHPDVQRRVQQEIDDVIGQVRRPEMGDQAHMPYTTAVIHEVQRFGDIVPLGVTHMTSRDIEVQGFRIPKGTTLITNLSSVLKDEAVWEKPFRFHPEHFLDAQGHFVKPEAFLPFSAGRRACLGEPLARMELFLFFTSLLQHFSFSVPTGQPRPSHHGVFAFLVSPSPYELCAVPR

CYP2C9 [7] = tested on: CYP2C9
CYP2A6 = biological target: T5, CYP2A6 (Homo sapiens, UniProt P11509); assay: Competitive; assay type: in vitro ADME
T5 sequence (P11509 1-494): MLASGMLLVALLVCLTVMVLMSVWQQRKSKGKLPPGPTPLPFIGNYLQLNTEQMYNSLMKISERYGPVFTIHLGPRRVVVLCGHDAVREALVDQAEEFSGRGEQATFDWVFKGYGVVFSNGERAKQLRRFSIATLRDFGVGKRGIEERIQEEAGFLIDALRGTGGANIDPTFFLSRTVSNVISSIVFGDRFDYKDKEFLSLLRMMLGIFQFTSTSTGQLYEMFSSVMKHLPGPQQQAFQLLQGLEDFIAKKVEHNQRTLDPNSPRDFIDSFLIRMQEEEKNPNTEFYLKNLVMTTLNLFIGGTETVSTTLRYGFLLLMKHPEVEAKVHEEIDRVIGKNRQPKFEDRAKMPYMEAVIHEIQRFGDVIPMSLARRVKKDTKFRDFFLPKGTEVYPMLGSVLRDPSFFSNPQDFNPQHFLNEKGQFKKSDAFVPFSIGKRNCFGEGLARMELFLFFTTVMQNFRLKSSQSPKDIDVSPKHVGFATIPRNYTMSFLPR

CYP3A4 [8] = biological target: T2, CYP3A4; conditions: in man; cited from earlier work
CYP2B6 [9] = biological target: T1, CYP2B6; assay: Time-dependent; assay type: in vitro ADME; conditions: 30 min pre‐incubation with/without NADPH; bupropion hydroxylation
CYP2D6 [10] = biological target: T4, CYP2D6; assay: Competitive; assay type: in vitro ADME
CYP3A4 [11] = biological target: T2, CYP3A4; conditions: cited from earlier work
CYP3A4 [12] = biological target: T2, CYP3A4; assay: Cocktail DDI study: PK of midazolam and 1-OH midazolam with/without nivasorexant
[13] = after 8 days / repeated 100 mg b.i.d., steady state

Sequence of CYP2C19 (P33261 whole entry): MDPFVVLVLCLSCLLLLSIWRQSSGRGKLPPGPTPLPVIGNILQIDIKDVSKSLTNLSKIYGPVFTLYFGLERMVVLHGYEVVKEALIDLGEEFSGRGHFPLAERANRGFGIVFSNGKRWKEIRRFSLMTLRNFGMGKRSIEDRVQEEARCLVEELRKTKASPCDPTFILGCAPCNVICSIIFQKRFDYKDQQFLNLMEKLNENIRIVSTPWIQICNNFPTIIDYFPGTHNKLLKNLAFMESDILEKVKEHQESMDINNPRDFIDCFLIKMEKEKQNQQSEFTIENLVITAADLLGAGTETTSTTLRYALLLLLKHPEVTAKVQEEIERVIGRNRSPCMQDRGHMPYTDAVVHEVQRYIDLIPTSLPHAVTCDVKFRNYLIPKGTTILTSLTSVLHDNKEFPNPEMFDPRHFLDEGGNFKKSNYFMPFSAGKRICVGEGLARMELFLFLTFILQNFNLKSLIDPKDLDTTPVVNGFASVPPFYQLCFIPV
Sequence of CYP2C9 (Homo sapiens, UniProt P11712) (P11712 whole entry): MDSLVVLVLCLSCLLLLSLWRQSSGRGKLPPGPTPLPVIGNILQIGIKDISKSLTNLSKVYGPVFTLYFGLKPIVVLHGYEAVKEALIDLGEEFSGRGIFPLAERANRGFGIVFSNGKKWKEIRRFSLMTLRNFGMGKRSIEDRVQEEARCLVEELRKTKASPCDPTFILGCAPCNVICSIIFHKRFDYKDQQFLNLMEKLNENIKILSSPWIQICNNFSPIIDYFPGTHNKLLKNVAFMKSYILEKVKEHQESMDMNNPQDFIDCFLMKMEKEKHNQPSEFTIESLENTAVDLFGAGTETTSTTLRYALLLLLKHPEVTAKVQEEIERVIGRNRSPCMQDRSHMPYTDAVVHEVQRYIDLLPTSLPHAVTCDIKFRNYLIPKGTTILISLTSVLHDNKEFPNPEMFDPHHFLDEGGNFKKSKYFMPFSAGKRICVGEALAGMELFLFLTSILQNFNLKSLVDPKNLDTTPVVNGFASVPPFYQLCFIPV

## Cc1ccc(C(=O)N2CCOC[C@H]2Cc2cccc(-n3nccn3)c2)c(-n2nccn2)c1 [nivasorexant]
CYP2C19; after 1 day of 100 mg b.i.d.
  CYP2C19 inhibitor classification according to regulatory guidance: moderate (≥ 2‐ to <5‐fold)
CYP2C19; [13]
  CYP2C19 inhibitor classification according to regulatory guidance: strong (≥5‐fold)
CYP2C9 [1]
  IC50: 8.6 µM
  Ki: 5 µM
Human OX1R
  higher potency at human OX1R than at human OX2R: approximately 60 fold
[2]; 100 mg b.i.d.
  time to steady‐state trough concentrations: 3 to 4 days
[2]; AUCτ Day 15 / AUCτ Day 8, 8 days of 100 mg b.i.d.
  accumulation index (AIX): 1.8
[2]; Day 8
  unbound peak concentration: 16 nM
[2]; Day 15
  unbound peak concentration: 29 nM
[2]; both, human, plasma, oral, AUCτ, Trt D, Day 15, repeated 100 mg b.i.d., geometric mean (95% CI)
  AUC: 8560 ng·h/mL
[2]; both, human, plasma, oral, C max, Trt D, Day 15, repeated 100 mg b.i.d., steady state, geometric mean (95% CI)
  Cmax: 1250 ng/mL
[2]; both, human, plasma, oral, t max, Trt D, Day 15, repeated 100 mg b.i.d., median (range)
  t max: 2 h
CYP2B6 [3]
  IC50: > 100 µM
CYP3A4 [4]; midazolam 1′‐hydroxylation
  IC50 shift: none
CYP3A4 [4]; testosterone 6β‐hydroxylation
  IC50 shift: none
CYP3A4 [4]; time‐dependent inhibition assay
  effect of pre‐incubation on CYP3A4 activity (in words, probe not stated): no pre‐incubation effect
CYP3A4 [5]
  IC50: 44 µM
CYP3A4 [5]; IC50 (range over both probe substrates), midazolam and testosterone as probes
  IC50: 19 to 44 µM
CYP3A4 [5]; IC50, human liver microsomes, midazolam 1′‐hydroxylation
  IC50: 19 µM
CYP2C8
  IC50 shift: no effect and none
CYP2D6 [6]
  IC50 shift: no effect and none
CYP2C9 [7]; [13]
  CYP2C9 inhibitor classification according to regulatory guidance: weak (≥1.25‐ to <2‐fold)
CYP2C9 [7]; initial administration on Day 8, 90% CIs of GMR within 0.8–1.25
  perpetrator DDI potential with respect to CYP2C9 (in words): lack of perpetrator DDI potential
CYP2A6
  IC50: > 100 µM
CYP3A4 [8]
  extent of microsomal metabolism dependent on CYP3A4: approximately 90%
CYP2B6 [9]
  IC50 shift: none
CYP2D6 [10]
  IC50: > 100 µM
CYP3A4 [11]; 200 mg b.i.d. nivasorexant
  time to steady‐state conditions: 4 to 5 days
CYP3A4 [11]; after b.i.d. administration of 200 mg for 10 days
  CYP3A4 inhibitor classification: moderate (≥ 2‐ to <5‐fold)
CYP3A4 [12]; after 1 day of 100 mg b.i.d.
  CYP3A4 inhibitor classification according to regulatory guidance: weak (≥1.25‐ to <2‐fold)
CYP3A4 [12]; [13]
  CYP3A4 inhibitor classification according to regulatory guidance: moderate (≥ 2‐ to <5‐fold)
